Results: patent publication US10138255B2, “Piperazine derivatives as HIV protease inhibitors” (Merck Sharp & Dohme Corp., priority 2014, dated 2018)

test system: HIV-1 (H9IIIB strain); assay: Cell-Based HIV Infection Assay Using a Reporter (MT4-GFP cells); details: Human immunodeficiency virus 1, inflection point (IP) of viral growth inhibition; MT4-GFP cells infected with HIV-1 H9IIIB; 50% normal human serum; mean of at least two independent experiments; read-out: Cell Based IP (50% NHS)
Procedure: Cell-Based HIV Infection Assay Using a Reporter (“Cell-Based”):
MT4-GFP cells contain a stably integrated HIV long terminal repeat promoter directing the transcription of green fluorescent protein (GFP). When HIV infects the cell, GFP is produced and the cell becomes green. MT4-GFP cells (250,000 cells/mL) were bulk-infected with HIV-1 (H9IIIB strain) at low multiplicity of infection (MOI) in RPM 1640 media, supplemented with 10% FBS for 24 h. Cells were then washed once in RPMI 1640 plus 10% FBS and resuspended in RPMI plus 50% normal human serum (NHS). Test compounds were serial-diluted in DMSO using an ECHO liquid dispenser. A control well included a combination of three HIV drugs (an inhibitor of HIV protease, integrase strand transfer and a non-nucleoside reverse transcriptase inhibitor; triple drug). The infected MT4-GFP cells were added to a 384-well poly-D-lysine coated black plate with clear bottom in which the diluted test compounds were placed. The cells were seeded in the plate at 8,000 cells per well and the final DMSO concentration was 0.4%. Infected cells were quantified at both 24 and 48 h post incubation using an Acumen eX3 plate reader. Viral reproductive ratio (R0) was determined using the number of infected cells at 48 h divided by the number of infected cells at 24 h. Percent viral growth inhibition was calculated by [1−(R−Rtripledrug)/(RDMSO−Rtripledrug)]*100. Compound potency inflection point (IP) was determined with use of a 4-parameter dose response curve analysis.
Data shown in the table reflects the mean of at least two independent experiments.

In order of rising EC50:
1. COC(=O)N[C@H](C(=O)Nc1cccc(F)c1CCC1CNC2CCCS(=O)(=O)N1C2)[C@@H](c1ccc(F)cc1)c1cc(F)cc(F)c1 (stereo partly drawn) [Example 35, methyl [(1S,2S)-2-(3,5-difluorophenyl)-1-({2-[2-(2,2-dioxido-2-thia-1,7-diazabicyclo[4.3.1]dec-9-yl)ethyl]-3-fluorophenyl}carbamoyl)-2-(4-fluorophenyl)ethyl]carbamate]  0.0038 µM
2. COc1ccc([C@H](c2ccc(Cl)cc2)[C@H](N)C(=O)Nc2cccc(F)c2CCC2CNC3CCCS(=O)(=O)N2C3)cn1 (stereo partly drawn) [Example 45, (βS)-4-chloro-N-{2-[2-(2,2-dioxido-2-thia-1,7-diazabicyclo[4.3.1]dec-9-yl)ethyl]-3-fluorophenyl}-β-(6-methoxypyridin-3-yl)-L-phenylalaninamide]  0.0038 µM
3. N[C@H](C(=O)Nc1cccc(F)c1CCC1CNC2CCCS(=O)(=O)N1C2)[C@H](c1cncc(F)c1)c1ccc(Cl)c(F)c1 (stereo partly drawn) [Example 44, (βS)-4-chloro-N-{2-[2-(2,2-dioxido-2-thia-1,7-diazabicyclo[4.3.1]dec-9-yl)ethyl]-3-fluorophenyl}-3-fluoro-β-(5-fluoropyridin-3-yl)-L-phenylalaninamide]  0.0045 µM
4. COC(=O)N[C@H](C(=O)Nc1cccc(F)c1CC[C@H]1CNC2CCCS(=O)(=O)N1C2)[C@@H](c1ccc(Cl)cc1)[C@H]1CCOC(C)(C)C1 (stereo partly drawn) [Example 43, methyl {(1S,2R)-2-(4-chlorophenyl)-2-[(4S)-2,2-dimethyltetrahydro-2H-pyran-4-yl]-1-[(2-{2-[(9S)-2,2-dioxido-2-thia-1,7-diazabicyclo[4.3.1]dec-9-yl]ethyl}-3-fluorophenyl)carbamoyl]ethyl}carbamate]  0.0085 µM
5. COC(=O)N[C@H](C(=O)Nc1cccc(F)c1CCC1CNC2CCCS(=O)(=O)N1C2)[C@H](c1cncc(F)c1)c1ccc(Cl)c(F)c1 (stereo partly drawn) [Example 46, methyl [(1S,2S)-2-(4-chloro-3-fluorophenyl)-1-({2-[2-(2,2-dioxido-2-thia-1,7-diazabicyclo[4.3.1]dec-9-yl)ethyl]-3-fluorophenyl}carbamoyl)-2-(5-fluoropyridin-3-yl)ethyl]carbamate]  0.0091 µM
6. COC(=O)N[C@H](C(=O)Nc1cccc(F)c1CCC1CNC2CCCS(=O)(=O)N1C2)[C@@H](c1ccc(Cl)cc1)C1CCOCC1 (stereo partly drawn) [Example 37, methyl [(1S,2R)-2-(4-chlorophenyl)-1-({2-[2-(2,2-dioxido-2-thia-1,7-diazabicyclo[4.3.1]dec-9-yl)ethyl]-3-fluorophenyl}carbamoyl)-2-(tetrahydro-2H-pyran-4-yl)ethyl]carbamate]  0.013 µM
7. COC(=O)N[C@H](C(=O)Nc1cccc(F)c1CCC1CNC2CCCS(=O)(=O)N1C2)[C@@H](c1ccc(Cl)cc1)c1ccc(OC)nc1 (stereo partly drawn) [Example 47, methyl [(1S,2S)-2-(4-chlorophenyl)-1-({2-[2-(2,2-dioxido-2-thia-1,7-diazabicyclo[4.3.1]dec-9-yl)ethyl]-3-fluorophenyl}carbamoyl)-2-(6-methoxypyridin-3-yl)ethyl]carbamate]  0.018 µM
8. COC(=O)N[C@H](C(=O)N[C@H]1CCC[C@@H]1CC[C@H]1CN[C@@H]2CCCS(=O)(=O)N1C2)C(c1ccc(F)cc1)c1ccc(F)cc1 [Example 49, methyl [(1S)-1-[bis(4-fluorophenyl)methyl]-2-{[(1S,2R)-2-{2-[(6R,9S)-2,2-dioxido-2-thia-1,7-diazabicyclo[4.3.1]dec-9-yl]ethyl}cyclopentyl]amino}-2-oxoethyl]carbamate]  0.018 µM
9. N[C@H](C(=O)Nc1cccc(F)c1CCC1CNC2CCCS(=O)(=O)N1C2)[C@@H](c1ccc(F)cc1)c1cccc(C2CC2)c1 (stereo partly drawn) [Example 51, (βS)-3-cyclopropyl-N-{2-[2-(2,2-dioxido-2-thia-1,7-diazabicyclo[4.3.1]dec-9-yl)ethyl]-3-fluorophenyl}-β-(4-fluorophenyl)-L-phenylalaninamide]  0.02 µM
10. N[C@H](C(=O)Nc1cccc(F)c1CCC1CNC2CCCS(=O)(=O)N1C2)[C@@H](c1ccc(Cl)cc1)C1CCOCC1 (stereo partly drawn) [Example 36, (βR)-4-chloro-N-{2-[2-(2,2-dioxido-2-thia-1,7-diazabicycio[4.3.1]dec-9-yl)ethyl]-3-fluorophenyl}-β-(tetrahydro-2H-pyran-4-yl)-L-phenylalaninamide]  0.022 µM
11. N[C@H](C(=O)Nc1cccc(F)c1CCC1CNC2CCCS(=O)(=O)N1C2)[C@@H](c1ccc(Cl)cc1)C1CCC(F)(F)CC1 (stereo partly drawn) [Example 53, (βR)-4-chloro-β-(4,4-difluorocyclohexyl)-N-{2-[2-(2,2-dioxido-2-thia-1,7-diazabicyclo[4.3.1]dec-9-yl)ethyl]-3-fluorophenyl}-L-phenylalaninamide]  0.024 µM
12. CC(C)[C@H](c1ccc(Cl)cc1)[C@H](N)C(=O)Nc1cccc(F)c1CCC1CNC2CCCS(=O)(=O)N1C2 (stereo partly drawn) [Example 38, (βR)-4-chloro-N-{2-[2-(2,2-dioxido-2-thia-1,7-diazabicyclo[4.3.1]dec-9-yl)ethyl]-3-fluorophenyl}-β-(1-methylethyl)-L-phenylalaninamide]  0.028 µM
13. COC(=O)N[C@H](C(=O)N[C@H]1CCC[C@@H]1CC[C@H]1CN[C@@H]2CCCS(=O)(=O)N1C2)[C@@H](c1ccc(F)cc1)C1CCOC(C)(C)C1 (stereo partly drawn) [Example 50, methyl [(1S,2R)-2-(2,2-dimethyltetrahydro-2H-pyran-4-yl)-1-{[(1S,2R)-2-{2-[(6R,9S)-2,2-dioxido-2-thia-1,7-diazabicyclo[4.3.1]dec-9-yl]ethyl}cyclopentyl]carbamoyl}-2-(4-fluorophenyl)ethyl]carbamate]  0.028 µM
14. COC(=O)N[C@H](C(=O)Nc1cccc(F)c1CC[C@H]1CNC2CCCS(=O)(=O)N1C2)C1(c2ccc(Cl)cc2)CCOCC1 (stereo partly drawn) [Example 42, methyl {(1S)-1-[4-(4-chlorophenyl)tetrahydro-2H-pyran-4-yl]-2-[(2-{2-[(9S)-2,2-dioxido-2-thia-1,7-diazabicyclo[4.3.1]dec-9-yl]ethyl}-3-fluorophenyl)amino]-2-oxoethyl}carbamate]  0.031 µM
15. N[C@H](C(=O)Nc1cccc(F)c1CCC1CNC2CCCS(=O)(=O)N1C2)[C@@H](c1ccc(Cl)cc1)C1CC(F)(F)C1 (stereo partly drawn) [Example 48, (βR)-4-chloro-β-(3,3-difluorocyclobutyl)-N-{2-[2-(2,2-dioxido-2-thia-1,7-diazabicyclo[4.3.1]dec-9-yl)ethyl]-3-fluorophenyl}-L-phenylalaninamide]  0.033 µM
16. COC(=O)N[C@H](C(=O)Nc1cccc(F)c1CC[C@H]1CNC2CCCS(=O)(=O)N1C2)C1(c2ccc(F)cc2)CCC(F)(F)CC1 (stereo partly drawn) [Example 41, methyl {(1S)-1-[4,4-difluoro-1-(4-fluorophenyl)cyclohexyl]-2-[(2-{2-[(9S)-2,2-dioxido-2-thia-1,7-diazabicyclo[4.3.1]dec-9-yl]ethyl}-3-fluorophenyl)amino]-2-oxoethyl}carbamate]  0.043 µM
17. COC(=O)N[C@H](C(=O)Nc1cccc(F)c1CCC1CNC2CCCS(=O)(=O)N1C2)[C@@H](c1ccc(F)cc1)c1cccc(C2CC2)c1 (stereo partly drawn) [Example 52, methyl [(1S,2S)-2-(3-cyclopropylphenyl)-1-({2-[2-(2,2-dioxido-2-thia-1,7-diazabicyclo[4.3.1]dec-9-yl)ethyl]-3-fluorophenyl}carbamoyl)-2-(4-fluorophenyl)ethyl]carbamate]  0.072 µM
18. CC1(C)CC([C@H](c2ccc(Cl)cc2)[C@H](N)C(=O)N[C@H]2CCC[C@@H]2CC[C@H]2CN[C@@H]3CCCS(=O)(=O)N2C3)CCO1 (stereo partly drawn) [Example 55, (βR)-4-chloro-β-(2,2-dimethyltetrahydro-2H-pyran-4-yl)-N-[(1S,2R)-2-{2-[(6R,9S)-2,2-dioxido-2-thia-1,7-diazabicyclo[4.3.1]dec-9-yl]ethyl}cyclopentyl]-L-phenylalaninamide]  0.08 µM
19. N[C@H](C(=O)Nc1cccc(F)c1CC[C@H]1CNC2CCCS(=O)(=O)N1C2)C1(c2ccc(Cl)cc2)CCOCC1 (stereo partly drawn) [Example 40, (2S)-2-amino-2-[4-(4-chlorophenyl)tetrahydro-2H-pyran-4-yl]-N-(2-{2-[(9S)-2,2-dioxido-2-thia-1,7-diazabicyclo[4.3.1]dec-9-yl]ethyl}-3-fluorophenyl)ethanamide]  0.099 µM
20. CC1(C)CC([C@H](c2ccc(F)cc2)[C@H](N)C(=O)N[C@H]2CCC[C@@H]2CC[C@H]2CN[C@@H]3CCCS(=O)(=O)N2C3)CCO1 (stereo partly drawn) [Example 54, (βR)-β-(2,2-dimethyltetrahydro-2H-pyran-4-yl)-N-[(1S,2R)-2-{2-[(6R,9S)-2,2-dioxido-2-thia-1,7-diazabicyclo[4.3.1]dec-9-yl]ethyl}cyclopentyl]-4-fluoro-L-phenylalaninamide]  0.18 µM
21. N[C@H](C(=O)Nc1cccc(F)c1CC[C@H]1CNC2CCCS(=O)(=O)N1C2)C1(c2ccc(F)cc2)CCC(F)(F)CC1 (stereo partly drawn) [Example 39, (2S)-2-amino-2-[4,4-difluoro-1-(4-fluorophenyl)cyclohexyl]-N-(2-{2-[(9S)-2,2-dioxido-2-thia-1,7-diazabicyclo[4.3.1]dec-9-yl]ethyl}-3-fluorophenyl)ethanamide]  0.2 µM
